Common to all, as to format: functional
One experiment has as its system Bacillus subtilis. The experiment is described as follows: Antibacterial activity against Bacillus subtilis NCIM-2063 after 24 hrs by broth dilution method. To be noted: NCIM-2063, 24 h. On the technique in general: Dilution methods test growth across graded concentrations, often in twofold steps.
For experiment [1], the system named is Staphylococcus aureus. The experiment is described as follows: Antibacterial activity against Staphylococcus aureus NCIM-2079 after 24 hrs by broth dilution method. To be noted: NCIM-2079, 24 h.
In the next experiment the test system is Bacillus cereus. As to the kind of experiment: Antibacterial activity against Bacillus cereus NCIM-2156 after 24 hrs by broth dilution method. As to conditions: NCIM-2156, 24 h.
In a further experiment the test system is Proteus vulgaris. As to the kind of experiment: Antibacterial activity against Proteus vulgaris NCIM-2027 after 24 hrs by broth dilution method. As to conditions: NCIM-2027, 24 h.
The test system of the next experiment is Escherichia coli. As to the kind of experiment: Antibacterial activity against Escherichia coli NCIM-2065 after 24 hrs by broth dilution method. To be noted: NCIM-2065, 24 h.
The subject of a further experiment is Pseudomonas aeruginosa. As to the kind of experiment: Antibacterial activity against Pseudomonas aeruginosa NCIM-2036 after 24 hrs by broth dilution method. To be noted: NCIM-2036, 24 h.
Experiment [2] has as its system Staphylococcus aureus. As to the kind of experiment: Antibiofilm activity against Staphylococcus aureus NCIM-2079 after 16 hrs.

Usually MIC stands for the lowest concentration that inhibits growth of the organism. Read a low MIC as a more susceptible organism.

≈ marks a conversion by molar mass, not a printed value.

For the molecule `S=C(Nc1nc(Nc2ccc(Cl)cc2)nc(Nc2ccc(Cl)cc2)n1)N1N=C(c2ccccc2)CC1c1ccccc1` (configuration not stated), the MIC with Bacillus subtilis came out at 7.81 µg/mL (≈ 12.8 µM); in the experiment with Staphylococcus aureus [1], 15.6 µg/mL (≈ 25.5 µM); with Bacillus cereus it was 31.2 µg/mL (≈ 51.1 µM); in the experiment with Proteus vulgaris, 15.6 µg/mL (≈ 25.5 µM); in the experiment with Escherichia coli, 31.2 µg/mL (≈ 51.1 µM); with Pseudomonas aeruginosa, 31.2 µg/mL (≈ 51.1 µM). In the experiment with Staphylococcus aureus [2], this molecule showed an Activity of 31.25 µg/mL.
Turning to `O=[N+]([O-])c1ccccc1C1CC(c2ccccc2)=NN1C(=S)Nc1nc(Nc2ccc(Cl)cc2)nc(Nc2ccc(Cl)cc2)n1` (configuration not stated), the MIC was found to be 15.6 µg/mL (≈ 23.8 µM) against Bacillus subtilis; 62.5 µg/mL (≈ 95.2 µM) in the experiment on Staphylococcus aureus [1]; 31.2 µg/mL (≈ 47.6 µM) in the experiment with Bacillus cereus; 62.5 µg/mL (≈ 95.2 µM) with Proteus vulgaris; 125 µg/mL (≈ 190 µM) with Escherichia coli; 125 µg/mL (≈ 190 µM) in the experiment with Pseudomonas aeruginosa. In the experiment with Staphylococcus aureus [2], this molecule had an Activity of 125 µg/mL.
As to `O=[N+]([O-])c1ccc(C2CC(c3ccccc3)=NN2C(=S)Nc2nc(Nc3ccc(Cl)cc3)nc(Nc3ccc(Cl)cc3)n2)cc1` (configuration not stated), the MIC worked out at 31.2 µg/mL (≈ 47.6 µM) in the experiment on Bacillus subtilis; 125 µg/mL (≈ 190 µM) against Staphylococcus aureus [1]; 125 µg/mL (≈ 190 µM) against Bacillus cereus; 62.5 µg/mL (≈ 95.2 µM) against Proteus vulgaris; 62.5 µg/mL (≈ 95.2 µM) against Escherichia coli; 62.5 µg/mL (≈ 95.2 µM) against Pseudomonas aeruginosa. In the experiment with Staphylococcus aureus [2], this molecule showed an Activity of 125 µg/mL.
As to `S=C(Nc1nc(Nc2ccc(Cl)cc2)nc(Nc2ccc(Cl)cc2)n1)N1N=C(c2ccccc2)CC1c1ccccc1Cl` (configuration not stated), the MIC came out at 3.91 µg/mL (≈ 6.05 µM) against Bacillus subtilis; 15.6 µg/mL (≈ 24.2 µM) in the experiment with Staphylococcus aureus [1]; 62.5 µg/mL (≈ 96.7 µM) with Bacillus cereus; 15.6 µg/mL (≈ 24.2 µM) in the experiment with Proteus vulgaris; 15.6 µg/mL (≈ 24.2 µM) against Escherichia coli; 15.6 µg/mL (≈ 24.2 µM) with Pseudomonas aeruginosa. In the experiment with Staphylococcus aureus [2], this molecule returned an Activity of 31.25 µg/mL.
In the case of `S=C(Nc1nc(Nc2ccc(Cl)cc2)nc(Nc2ccc(Cl)cc2)n1)N1N=C(c2ccccc2)CC1c1ccc(Cl)cc1` (configuration not stated), the MIC in the experiment with Bacillus subtilis is 3.91 µg/mL (≈ 6.05 µM); in the experiment with Staphylococcus aureus [1] it was 15.6 µg/mL (≈ 24.2 µM); against Bacillus cereus, 15.6 µg/mL (≈ 24.2 µM); against Proteus vulgaris it was 15.6 µg/mL (≈ 24.2 µM); in the experiment on Escherichia coli, 7.81 µg/mL (≈ 12.1 µM); against Pseudomonas aeruginosa, 7.81 µg/mL (≈ 12.1 µM). In addition, in the experiment with Staphylococcus aureus [2], the Activity worked out at 62.5 µg/mL.
In the case of `O=[N+]([O-])c1cccc(Nc2nc(NC(=S)N3N=C(c4ccccc4)CC3c3ccccc3)nc(Nc3cccc([N+](=O)[O-])c3)n2)c1` (configuration not stated), the MIC against Bacillus subtilis was 15.6 µg/mL (≈ 24.7 µM); against Staphylococcus aureus [1], 7.81 µg/mL (≈ 12.3 µM); in the experiment with Bacillus cereus, 7.81 µg/mL (≈ 12.3 µM); in the experiment on Proteus vulgaris it was 7.81 µg/mL (≈ 12.3 µM); against Escherichia coli, 7.81 µg/mL (≈ 12.3 µM); against Pseudomonas aeruginosa, 7.81 µg/mL (≈ 12.3 µM). In the experiment with Staphylococcus aureus [2], this molecule showed an Activity of 31.25 µg/mL.
Consider `O=[N+]([O-])c1cccc(Nc2nc(NC(=S)N3N=C(c4ccccc4)CC3c3ccccc3[N+](=O)[O-])nc(Nc3cccc([N+](=O)[O-])c3)n2)c1` (configuration not stated), for which the MIC came out at 62.5 µg/mL (≈ 92.2 µM) in the experiment with Bacillus subtilis; 15.6 µg/mL (≈ 23 µM) with Staphylococcus aureus [1]; 62.5 µg/mL (≈ 92.2 µM) with Bacillus cereus; 62.5 µg/mL (≈ 92.2 µM) against Proteus vulgaris; 125 µg/mL (≈ 184 µM) against Escherichia coli; 125 µg/mL (≈ 184 µM) in the experiment on Pseudomonas aeruginosa. The same molecule returned an Activity with Staphylococcus aureus [2] of 125 µg/mL.
For the molecule `O=[N+]([O-])c1ccc(C2CC(c3ccccc3)=NN2C(=S)Nc2nc(Nc3cccc([N+](=O)[O-])c3)nc(Nc3cccc([N+](=O)[O-])c3)n2)cc1` (configuration not stated), the MIC with Bacillus subtilis worked out at 31.2 µg/mL (≈ 46.1 µM); in the experiment on Staphylococcus aureus [1], 31.2 µg/mL (≈ 46.1 µM); against Bacillus cereus, 125 µg/mL (≈ 184 µM); against Proteus vulgaris, 62.5 µg/mL (≈ 92.2 µM); in the experiment on Escherichia coli, 62.5 µg/mL (≈ 92.2 µM); in the experiment on Pseudomonas aeruginosa, 62.5 µg/mL (≈ 92.2 µM). The Activity with Staphylococcus aureus [2] turned out to be 62.5 µg/mL.
On to `O=[N+]([O-])c1cccc(Nc2nc(NC(=S)N3N=C(c4ccccc4)CC3c3ccccc3Cl)nc(Nc3cccc([N+](=O)[O-])c3)n2)c1` (configuration not stated), for which the MIC against Bacillus subtilis was found to be 15.6 µg/mL (≈ 23.4 µM); with Staphylococcus aureus [1] it was 15.6 µg/mL (≈ 23.4 µM); against Bacillus cereus, 15.6 µg/mL (≈ 23.4 µM); against Proteus vulgaris it was 31.2 µg/mL (≈ 46.8 µM); against Escherichia coli, 15.6 µg/mL (≈ 23.4 µM); in the experiment on Pseudomonas aeruginosa, 15.6 µg/mL (≈ 23.4 µM). This molecule also displayed an Activity with Staphylococcus aureus [2] of 62.5 µg/mL.
For `O=[N+]([O-])c1cccc(Nc2nc(NC(=S)N3N=C(c4ccccc4)CC3c3ccc(Cl)cc3)nc(Nc3cccc([N+](=O)[O-])c3)n2)c1` (configuration not stated), the MIC stood at 7.81 µg/mL (≈ 11.7 µM) against Bacillus subtilis; 15.6 µg/mL (≈ 23.4 µM) against Staphylococcus aureus [1]; 7.81 µg/mL (≈ 11.7 µM) against Bacillus cereus; 15.6 µg/mL (≈ 23.4 µM) in the experiment on Proteus vulgaris; 31.2 µg/mL (≈ 46.8 µM) in the experiment on Escherichia coli; 31.2 µg/mL (≈ 46.8 µM) against Pseudomonas aeruginosa. Further, the Activity with Staphylococcus aureus [2] came to 15.62 µg/mL.
As for `Fc1ccc(Nc2nc(NC(=S)N3N=C(c4ccccc4)CC3c3ccccc3)nc(Nc3ccc(F)cc3)n2)cc1` (configuration not stated), the MIC amounted to 7.81 µg/mL (≈ 13.5 µM) against Bacillus subtilis; 7.81 µg/mL (≈ 13.5 µM) in the experiment on Staphylococcus aureus [1]; 3.91 µg/mL (≈ 6.76 µM) in the experiment on Bacillus cereus; 15.6 µg/mL (≈ 27 µM) in the experiment with Proteus vulgaris; 15.6 µg/mL (≈ 27 µM) in the experiment on Escherichia coli; 15.6 µg/mL (≈ 27 µM) with Pseudomonas aeruginosa. Also, the Activity in the experiment on Staphylococcus aureus [2] came to 15.62 µg/mL.
Turning to `O=[N+]([O-])c1ccccc1C1CC(c2ccccc2)=NN1C(=S)Nc1nc(Nc2ccc(F)cc2)nc(Nc2ccc(F)cc2)n1` (configuration not stated), the MIC against Bacillus subtilis turned out to be 31.2 µg/mL (≈ 50.1 µM); in the experiment with Staphylococcus aureus [1] it was 31.2 µg/mL (≈ 50.1 µM); in the experiment on Bacillus cereus, 62.5 µg/mL (≈ 100 µM); in the experiment on Proteus vulgaris it was 31.2 µg/mL (≈ 50.1 µM); in the experiment with Escherichia coli it was 31.2 µg/mL (≈ 50.1 µM); with Pseudomonas aeruginosa it was 31.2 µg/mL (≈ 50.1 µM). This molecule also came in with an Activity in the experiment with Staphylococcus aureus [2] of 31.25 µg/mL.
With `O=[N+]([O-])c1ccc(C2CC(c3ccccc3)=NN2C(=S)Nc2nc(Nc3ccc(F)cc3)nc(Nc3ccc(F)cc3)n2)cc1` (configuration not stated), the MIC is 15.6 µg/mL (≈ 25 µM) with Bacillus subtilis; 31.2 µg/mL (≈ 50.1 µM) in the experiment with Staphylococcus aureus [1]; 31.2 µg/mL (≈ 50.1 µM) against Bacillus cereus; 62.5 µg/mL (≈ 100 µM) in the experiment on Proteus vulgaris; 31.2 µg/mL (≈ 50.1 µM) in the experiment with Escherichia coli; 31.2 µg/mL (≈ 50.1 µM) against Pseudomonas aeruginosa. The Activity in the experiment on Staphylococcus aureus [2] worked out at 62.5 µg/mL.
With `Fc1ccc(Nc2nc(NC(=S)N3N=C(c4ccccc4)CC3c3ccccc3Cl)nc(Nc3ccc(F)cc3)n2)cc1` (configuration not stated), the MIC came to 7.81 µg/mL (≈ 12.7 µM) against Bacillus subtilis; 15.6 µg/mL (≈ 25.5 µM) against Staphylococcus aureus [1]; 15.6 µg/mL (≈ 25.5 µM) against Bacillus cereus; 7.81 µg/mL (≈ 12.7 µM) in the experiment on Proteus vulgaris; 15.6 µg/mL (≈ 25.5 µM) in the experiment on Escherichia coli; 15.6 µg/mL (≈ 25.5 µM) in the experiment on Pseudomonas aeruginosa. Further, the Activity in the experiment with Staphylococcus aureus [2] was 62.5 µg/mL.
Take `Fc1ccc(Nc2nc(NC(=S)N3N=C(c4ccccc4)CC3c3ccc(Cl)cc3)nc(Nc3ccc(F)cc3)n2)cc1` (configuration not stated): the MIC with Bacillus subtilis came to 3.91 µg/mL (≈ 6.38 µM); against Staphylococcus aureus [1], 31.2 µg/mL (≈ 51 µM); against Bacillus cereus, 7.81 µg/mL (≈ 12.7 µM); against Proteus vulgaris, 15.6 µg/mL (≈ 25.5 µM); with Escherichia coli it was 7.81 µg/mL (≈ 12.7 µM); in the experiment with Pseudomonas aeruginosa, 7.81 µg/mL (≈ 12.7 µM). The Activity in the experiment on Staphylococcus aureus [2] came to 31.25 µg/mL.
As to `C=CC1=C(C(=O)O)N2C(=O)[C@@H](NC(=O)/C(=N\OCC(=O)O)c3csc(N)n3)[C@H]2SC1` [CEFIXIME], the MIC in the experiment with Bacillus subtilis was 1.95 µg/mL (≈ 4.3 µM); with Staphylococcus aureus [1], 7.81 µg/mL (≈ 17.2 µM); in the experiment on Bacillus cereus, 3.91 µg/mL (≈ 8.62 µM); in the experiment with Proteus vulgaris, 7.81 µg/mL (≈ 17.2 µM); in the experiment with Escherichia coli it was 3.91 µg/mL (≈ 8.62 µM); in the experiment with Pseudomonas aeruginosa, 3.91 µg/mL (≈ 8.62 µM).
In the experiment with Staphylococcus aureus [2], `CN[C@H](CC(C)C)C(=O)N[C@H]1C(=O)N[C@@H](CC(N)=O)C(=O)N[C@H]2C(=O)N[C@H]3C(=O)N[C@H](C(=O)N[C@H](C(=O)O)c4cc(O)cc(O)c4-c4cc3ccc4O)[C@H](O)c3ccc(c(Cl)c3)Oc3cc2cc(c3O[C@@H]2O[C@H](CO)[C@@H](O)[C@H](O)[C@H]2O[C@H]2C[C@](C)(N)[C@H](O)[C@H](C)O2)Oc2ccc(cc2Cl)[C@H]1O` [VANCOMYCIN] showed an Activity of 3.91 µg/mL.

Source of the values: ChEMBL document CHEMBL3352800, “Structure-guided discovery of 1,3,5-triazine-pyrazole conjugates as antibacterial and antibiofilm agent against pathogens causing human diseases with favorable metabolic fate” (2014).
